{
  "source": "patent US4834966A",
  "about": "“Pharmaceutical composition with analgesic activity” (priority 1986, dated 1989)",
  "origin": "cited, not measured here",
  "key": {"[1]": {"test_system": "gastrointestinal and oral mucosa", "details": "background statement"}, "[2]": {"details": "background statement"}},
  "data": [
    {"smiles": "CC(C)Cc1ccc(C(C)C(=O)[O-])cc1.[Na+]", "note": "(centres unmarked) [Ibuprofen sodium salt]", "values": [
      {"measurement": "gastrointestinal effect of solution pH", "setting": "[1]", "result": "gives solutions having a pH which produces gastrointestinal damages"},
      {"measurement": "solubility in water", "setting": "[2]", "result": "good solubility in water"}
    ]}
  ]
}
